The Deep4Chem optical property database
Each block holds one compound with its values, some of them ahead of it.

Test: solvent given as SMILES

Structure (SMILES): c1ccc(-c2cc(-c3ccc(N(c4ccccc4)c4ccccc4)cc3)cc(-c3ccccc3)n2)cc1
emission maximum (in CC#N): 489 nm | emission maximum (in CCCCCC): 393 nm | emission maximum (in CCO): 505 nm | emission maximum (in CO): 524 nm | emission maximum (in ClCCl): 476 nm

Structure (SMILES): CCCCCCCCCCCCC(CCCCCCCCCC)Cn1c2cc(C=C(C#N)C#N)c3cccc4c5cccc6c(C=C(C#N)C#N)cc1c(c65)c2c34 (centres undefined)
emission maximum (in C1CCCCC1): 603 nm | emission maximum (in CC#N): 641 nm | emission maximum (in Cc1ccccc1): 623 nm | emission maximum (in ClCCl): 635 nm

Structure (SMILES): O=P(c1ccccc1)(c1ccccc1)n1c2ccccc2c2cc(-n3c4ccccc4c4cc(-n5c6ccccc6c6cc(-n7c8ccccc8c8ccccc87)ccc65)ccc43)ccc21
emission maximum (in C1CCOC1): 378 nm | emission maximum (in CC(C)=O): 382 nm | emission maximum (in Cc1ccccc1): 376 nm | emission maximum (in ClCCl): 383 nm

Structure (SMILES): O=C(c1ccncc1)c1ccc(-n2c3ccccc3c3cc(-n4c5ccccc5c5ccccc54)ccc32)cc1
emission maximum (in Cc1ccccc1): 480 nm | emission maximum (in c1cc(-c2cccc(-n3c4ccccc4c4ccccc43)c2)cc(-n2c3ccccc3c3ccccc32)c1): 475.23 nm

Structure (SMILES): F[B-]1(F)n2c(-c3ccccc3)cc(-c3ccccc3)c2C(c2ccccc2)=C2C(c3ccccc3)=CC(c3ccccc3)=[N+]21
emission maximum (in C1CCOC1): 597 nm

Structure (SMILES): C(=C\c1cc(/C=C/c2ccc(-n3c4ccccc4c4ccccc43)cc2)cc(/C=C/c2ccc(-n3c4ccccc4c4ccccc43)cc2)c1)/c1ccc(-n2c3ccccc3c3ccccc32)cc1
emission maximum (in C1CCOC1): 403 nm | emission maximum (in CC#N): 429 nm | emission maximum (in Cc1ccccc1): 401 nm | emission maximum (in ClCCl): 419 nm

Structure (SMILES): c1ccc(-n2nc(-c3ccc(-c4ccc5c(c4)C(c4ccccc4)(c4ccccc4)c4ccccc4-5)cc3)nc2-c2ccccn2)cc1
emission maximum (in ClCCl): 358 nm

Structure (SMILES): CC1=C(C#Cc2ccc(B(c3c(C)cc(C)cc3C)c3c(C)cc(C)cc3C)cc2)C(C)=[N+]2C1=C(c1ccccc1)c1c(C)c(C#Cc3ccc(B(c4c(C)cc(C)cc4C)c4c(C)cc(C)cc4C)cc3)c(C)n1[B-]2(F)F
emission maximum (in ClCCl): 602 nm

Structure (SMILES): CC1(C)c2ccccc2N(c2ccc(-c3nc(-c4ccccn4)n(-c4ccc(N5c6ccccc6C(C)(C)c6ccccc65)cc4)n3)cc2)c2ccccc21
emission maximum (in ClCCl): 445 nm

Structure (SMILES): c1cc2c3c(c1)-c1ccc4c5c(ccc(c15)B3c1ccc3c5c(ccc-2c15)CC3)CC4
emission maximum (in Cc1ccccc1): 516 nm

Structure (SMILES): CCCCCCC(CCCCCC)n1c(=O)c2c3ccc4cccc5c6cccc7ccc(c2c1=O)c(c76)c3c45
emission maximum (in C1CCCCC1): 471 nm | emission maximum (in CC#N): 527 nm | emission maximum (in CC(C)=O): 514 nm | emission maximum (in CCCCCC): 469 nm | emission maximum (in CCO): 550 nm | emission maximum (in CCOCC): 495 nm | emission maximum (in CS(C)=O): 534 nm | emission maximum (in Cc1ccccc1): 491 nm | emission maximum (in ClC(Cl)(Cl)Cl): 482 nm | emission maximum (in ClC(Cl)Cl): 522 nm

Structure (SMILES): CN(C)c1ccc(C2=Cc3cc(Cl)nc[n+]3[B-](F)(F)O2)cc1
emission maximum (in C1CCOC1): 532 nm | emission maximum (in CC#N): 565 nm | emission maximum (in CCCCCC): 456 nm | emission maximum (in Cc1ccccc1): 494 nm | emission maximum (in ClC(Cl)Cl): 512 nm | emission maximum (in ClCCl): 529 nm

Structure (SMILES): C(=C\c1ccncn1)/c1ccc(-c2ccc(N(c3ccccc3)c3ccccc3)cc2)cc1
emission maximum (in C1CCOC1): 525 nm | emission maximum (in CC#N): 599 nm | emission maximum (in CCCCCCC): 445 nm | emission maximum (in CS(C)=O): 609 nm | emission maximum (in ClCCl): 563 nm

Structure (SMILES): Fc1cc(-c2ccc(-c3nc4cc(Br)ccc4[nH]3)cc2)ccc1-c1ccc(-c2nc3cc(Br)ccc3[nH]2)cc1
emission maximum (in CN(C)C=O): 417 nm

Structure (SMILES): CC1=[N+]2C(=C(c3ccccc3)c3ccc(/C=C/c4ccc(C(=C(c5ccccc5)c5ccccc5)c5ccccc5)cc4)n3[B-]2(F)F)C=C1
emission maximum (in C1CCOC1): 610 nm

Structure (SMILES): CN(C)c1ccc(C#Cc2cc(C#Cc3ccc(N(C)C)cc3)c3ccc4c(C#Cc5ccc(N(C)C)cc5)cc(C#Cc5ccc(N(C)C)cc5)c5ccc2c3c54)cc1
emission maximum (in ClCCl): 562 nm

Structure (SMILES): [O-]c1ccccc1-c1[nH+]c2c3ccccc3c3ccccc3c2o1
emission maximum (in Cc1ccccc1): 495 nm

Structure (SMILES): COc1ccc(C2=C(c3ccc(F)cc3)C(c3ccccc3)=[N+]3C2=Nc2c(-c4ccc(OC)cc4)c(-c4ccc(F)cc4)c(-c4ccccc4)n2[B-]3(F)F)cc1
emission maximum (in Cc1ccccc1): 692 nm

Structure (SMILES): CC(C)(C)NC1=CC2=c3cc(NC(C)(C)C)c4nc(C(F)(F)C(F)(F)C(F)(F)F)nc5c(NC(C)(C)C)cc(c3c54)C3=CC(NC(C)(C)C)=C4N=C(C(F)(F)C(F)(F)C(F)(F)F)N=C1C4C32 (centres undefined)
emission maximum (in C1CCOC1): 666 nm

Structure (SMILES): O=C1c2ccccc2-c2ccc(N3CCOCC3)c3cccc1c23
emission maximum (in C1CCOC1): 600 nm | emission maximum (in CCCCCC): 529 nm | emission maximum (in CCO): 640 nm | emission maximum (in CCOC(C)=O): 600 nm | emission maximum (in CN(C)C=O): 622 nm | emission maximum (in CO): 661 nm | emission maximum (in Cc1ccccc1): 568 nm | emission maximum (in ClC(Cl)(Cl)Cl): 552 nm | emission maximum (in ClC(Cl)Cl): 625 nm | emission maximum (in ClCCl): 625 nm | emission maximum (in c1ccccc1): 562 nm

Structure (SMILES): COc1ccc(-c2nc(C(C)=O)c(C)o2)cc1
emission maximum (in CC#N): 347 nm | emission maximum (in CCO): 354 nm | emission maximum (in CCOC(C)=O): 347 nm | emission maximum (in CCOCC): 345 nm | emission maximum (in ClCCl): 351 nm

Structure (SMILES): CN(C)c1ccc(C2=Cc3c4ccccc4c4ccccc4[n+]3[B-](F)(F)O2)cc1
emission maximum (in C1CCOC1): 539 nm | emission maximum (in C1COCCO1): 518 nm | emission maximum (in CC1CCCCC1): 485 nm | emission maximum (in CC#N): 569 nm | emission maximum (in CCOC(C)=O): 536 nm | emission maximum (in CCOCC): 513 nm | emission maximum (in CN(C)C=O): 571 nm | emission maximum (in CO): 559 nm | emission maximum (in COC(C)=O): 559 nm | emission maximum (in ClC(Cl)Cl): 521 nm

Structure (SMILES): CCCCCCCCC1(CCCCCCCC)c2cc3c(cc2-c2sc(-c4ccc(/C=C5\SC(N6CCCCC6)=NC5=O)c5nsnc45)cc21)C(CCCCCCCC)(CCCCCCCC)c1cc(-c2ccc(/C=C4\SC(N5CCCCC5)=NC4=O)c4nsnc24)sc1-3
emission maximum (in ClC(Cl)Cl): 675 nm

Structure (SMILES): CCC1(CC)c2ccccc2-c2ccc(C#Cc3ccc4ccc5cccc6ccc3c4c56)cc21
emission maximum (in C1CCCCC1): 407 nm | emission maximum (in C1CCOC1): 410 nm | emission maximum (in CC#N): 408 nm | emission maximum (in CCOC(C)=O): 406 nm | emission maximum (in CN(C)C=O): 412 nm | emission maximum (in Cc1ccccc1): 412 nm | emission maximum (in ClC(Cl)Cl): 413 nm | emission maximum (in ClCCl): 412 nm

Structure (SMILES): F[B-]1(F)N(c2ccccc2)C=Cc2cccc[n+]21
emission maximum (in C1CCCCC1): 543 nm | emission maximum (in C1CCOC1): 541 nm | emission maximum (in CC#N): 555 nm | emission maximum (in CCO): 553 nm | emission maximum (in O): 539 nm

Structure (SMILES): N#Cc1cc(/C=C/c2ccc(/C=C/c3ccc(N(c4ccccc4)c4ccccc4)cc3)c(C#N)c2)ccc1/C=C/c1ccc(N(c2ccccc2)c2ccccc2)cc1
emission maximum (in ClCCl): 577 nm

Other lines, results leading:

emission maximum (in ClCCl): 417 nm
Structure (SMILES): c1ccc(-c2c3ccccc3c(-c3ccc(-c4cccnc4)cc3)c3ccccc23)cc1

emission maximum (in C1CCOC1): 443 nm | emission maximum (in ClCCl): 454 nm
Structure (SMILES): COc1ccc(C2=Cc3ccccc3P2(=O)c2ccccc2)cc1 (centres undefined)

emission maximum (in C1CCOC1): 529 nm | emission maximum (in CC#N): 538 nm | emission maximum (in CCO): 532 nm | emission maximum (in CCOC(C)=O): 526 nm | emission maximum (in ClCCl): 528 nm | emission maximum (in c1ccccc1): 511 nm
Structure (SMILES): CC1(C)CC(/C=C/c2ccc(-n3cccn3)cc2)=CC(=C(C#N)C#N)C1

emission maximum (in ClCCl): 494 nm
Structure (SMILES): CCN(CC)c1ccc2cc(-c3nc4cc(C(=O)Nc5cccc(OC)c5)ccc4o3)c(=O)oc2c1

emission maximum (in CC#N): 580 nm | emission maximum (in ClCCl): 578 nm
Structure (SMILES): CCN(CC)c1ccc(/N=N/c2nc3ccc(Br)cc3s2)cc1

emission maximum (in C1CCCCC1): 434 nm | emission maximum (in CO): 499 nm | emission maximum (in CS(C)=O): 481 nm | emission maximum (in ClC(Cl)Cl): 456 nm | emission maximum (in c1ccccc1): 446 nm
Structure (SMILES): CCOC(=O)CCCn1c(C(=O)OC)c(C)c2c(=O)n3c(cc21)C(CC)=C(C)C3=O

emission maximum (in CC#N): 390 nm
Structure (SMILES): Cc1sc(Cl)cc1-c1nc(-c2ccc(Cl)cc2)[nH]c1-c1cc(Cl)sc1C

emission maximum (in CS(C)=O): 514 nm
Structure (SMILES): Cc1cccn2c1cc1c3ccccc3nc(-c3cccs3)c12

emission maximum (in C1CCCCC1): 370 nm | emission maximum (in CO): 380 nm
Structure (SMILES): C/C(=C\c1ccccc1)c1nc2ccccc2o1

emission maximum (in C1COCCO1): 587 nm | emission maximum (in CN(C)C=O): 613 nm | emission maximum (in CO): 629 nm | emission maximum (in CS(C)=O): 629 nm | emission maximum (in O): 644 nm
Structure (SMILES): O=C1/C(=C2\Sc3ccc(S(=O)(=O)O)cc3C2=O)Sc2ccc(S(=O)(=O)O)cc21

emission maximum (in ClCCl): 348 nm
Structure (SMILES): Cn1nc(-c2ccc(C#N)cc2)cc1-c1ccccc1

emission maximum (in CCO): 412 nm
Structure (SMILES): C#Cc1ccc2cc(/C=C/C(=O)OCC)c(=O)oc2c1

emission maximum (in CO): 405 nm
Structure (SMILES): Oc1cc2ccc3cc(O)cc4ccc(c1)c2c34

emission maximum (in C1CCOC1): 560 nm | emission maximum (in CN1CCCC1=O): 595 nm | emission maximum (in CN(C)C=O): 572 nm
Structure (SMILES): O=C1OC(=O)c2cc(Oc3ccccc3)c3c4ccc5c6c(cc(Oc7ccccc7)c(c7ccc1c2c73)c64)C(=O)OC5=O

emission maximum (in CCO): 606 nm | emission maximum (in ClCCl): 603 nm
Structure (SMILES): c1csc(-c2c3ccc(=[N+]4CCCCC4)cc-3oc3cc(N4CCCCC4)ccc23)c1

emission maximum (in CC#N): 473 nm | emission maximum (in ClCCl): 472 nm
Structure (SMILES): Cc1cc(O)c(C(=O)/C=C/c2ccc(Cl)cc2Cl)c(=O)o1

emission maximum (in ClCCl): 505 nm
Structure (SMILES): COc1cn2cc(-c3ccc(C#N)cc3)[n-][n+]2c1

emission maximum (in ClCCl): 485 nm
Structure (SMILES): COc1ccc(-c2ccc(/C=C/c3cnc4ccccc4n3)cc2)cc1

emission maximum (in CC#N): 413 nm
Structure (SMILES): CCOC(=O)c1c2c3c(ccc(C)c3c3cc4ccccc4cc13)N(C)C2=O

emission maximum (in CS(C)=O): 424 nm | emission maximum (in O): 433 nm
Structure (SMILES): Cn1c2ccc(S(=O)(=O)O)cc2c(=O)c2cc(S(=O)(=O)O)ccc21

emission maximum (in ClCCl): 498 nm
Structure (SMILES): COc1ccc2c(c1)c1cc(OC)ccc1c1c2c2c(C(=O)NC(C)(C)C)ccc(C(=O)NC(C)(C)C)c2c2c3ccc(OC)cc3c3cc(OC)ccc3c21

emission maximum (in CCO): 373 nm | emission maximum (in ClCCl): 396 nm | emission maximum (in O): 463 nm
Structure (SMILES): Oc1ccccc1-c1nc2ccccc2s1

emission maximum (in C1CCCCC1): 375 nm | emission maximum (in CC#N): 375 nm | emission maximum (in CO): 375 nm | emission maximum (in ClC(Cl)Cl): 376 nm
Structure (SMILES): NCc1ccc2ccc3cccc4ccc1c2c34

emission maximum (in CO): 417 nm
Structure (SMILES): N[C@@H](Cn1nnc2cc(-c3ccc4ccccc4c3)ccc21)C(=O)O

emission maximum (in CCCCCC): 699 nm | emission maximum (in ClCCl): 738 nm
Structure (SMILES): CC(C)[Si](C#Cc1c2cc3ccccc3cc2c(C#C[Si](C(C)C)(C(C)C)C(C)C)c2nc3ccccc3nc12)(C(C)C)C(C)C
